According to patent US12220417B2, “Pharmaceutical compositions comprising (S)-2-(2,6-dioxopiperidin-3-yl)-4-((2-fluoro-4-((3-morpholinoazetidin-1-yl)methyl)benzyl)amino)isoindoline-1,3-dione and methods of using the same” (Celgene Corporation, priority 2019, dated 2025):

Assays:
[1] = tested on: DB; assay: Flow cytometry viability/apoptosis assay, DB; assay type: cell-based; settings: Homo sapiens, DLBCL GCB, 120 hours, read-out: % Viable Cells IC50
Procedure: (§1) Cell Proliferation and Viability Assay Using Hematological Cell Lines: The following exemplary anti-proliferative assay uses exemplary hematological cell lines in the following. The in vitro growth inhibitory activity of Compound 1 described herein was evaluated using a 384-well flow cytometry assay.
(§2) The cell lines were plated in 384-well flat bottom plates and assessed with increasing concentrations of compound ranging from 0.00015 to 10 μM or dimethyl sulfoxide (DMSO) control. The final concentration of DMSO was 0.1% (v/v). Following the addition of Compound 1 or DMSO and incubation for 120 hours, cell number and cell death were analyzed by flow cytometry (Attune®, Thermo Fisher) using Annexin V and the live-cell impermeant DNA dye, DRAQ7. […]
(§3) Flow cytometry data analysis was then performed using the Flow Jo_v10 software to determine the number of viable cells (Annexin V and DRAQ7 double negative staining cells) and percentage of apoptotic cells (Annexin V positive cells) for each condition. […] The IC50 (50% inhibitory concentration) and Emax (maximum efficacy achieved) values were then calculated by performing nonlinear regression curve fitting using log(inhibitor) vs. normalized response—variable slope analysis on GraphPad Prism 7.03. Area under the curve (AUC) was calculated by performing area under curve analysis on GraphPad Prism 7.03. […]

[2] = tested on: Mec1; assay: Flow cytometry viability/apoptosis assay, Mec1; assay type: cell-based; settings: Homo sapiens; Mec1, CLL; 120 hours; read-out: % Viable Cells IC50
Procedure: as §1, §2, §3

[3] = tested on: hematological cell lines; assay: Cell Proliferation and Viability Assay Using Hematological Cell Lines (whole panel); assay type: cell-based; settings: panel of hematological cell lines, 0.00015 to 10 μM, 5 days
Procedure: as §1, §2, §3

[4] = tested on: WA-OSEL; assay: Flow cytometry viability/apoptosis assay, WA-OSEL; assay type: cell-based; settings: CLL, 120 hours, read-out: % Viable Cells IC50
Procedure: as §1, §2, §3

[5] = Solubility of Compound 1; assay type: physicochemical; settings: compared to the low dose / proposed dose levels
[6] = tested on: CII; assay: Flow cytometry viability/apoptosis assay, CII; assay type: cell-based; settings: CLL, 120 hours, read-out: % Viable Cells IC50
Procedure: as §1, §2, §3

[7] = tested on: PGA1; assay: Flow cytometry viability/apoptosis assay, PGA1; assay type: cell-based; settings: PGA1, CLL; 120 hours; read-out: % Viable Cells IC50
Procedure: as §1, §2, §3

[8] = tested on: OCI-LY3; assay: Flow cytometry viability/apoptosis assay, OCI-LY3; assay type: cell-based; settings: Homo sapiens; OCI-LY3, DLBCL ABC; 120 hours; read-out: % Viable Cells IC50
Procedure: as §1, §2, §3

[9] = tested on: ROS-50; assay: Flow cytometry viability/apoptosis assay, ROS-50; assay type: cell-based; settings: ROS-50, DLBCL; 120 hours; read-out: % Viable Cells IC50
Procedure: as §1, §2, §3

[10] = tested on: HG3; assay: Flow cytometry viability/apoptosis assay, HG3; assay type: cell-based; settings: HG-3; HG3, CLL; 120 hours; read-out: % Viable Cells IC50
Procedure: as §1, §2, §3

| SMILES | IC50 [1] [µM] | IC50 [2] [µM] | antiproliferative activity and/or apoptotic effects [3] | IC50 [4] [µM] | solubility [5] | IC50 [6] [µM] | IC50 [7] [µM] | IC50 [8] [µM] | IC50 [9] [µM] | IC50 [10] [µM] |
| --- | --- | --- | --- | --- | --- | --- | --- | --- | --- | --- |
| O=C1CC[C@H](N2C(=O)c3cccc(NCc4ccc(CN5CC(N6CCOCC6)C5)cc4F)c3C2=O)C(=O)N1 [Compound 1, (S)-2-(2,6-dioxopiperidin-3-yl)-4-((2-fluoro-4-((3-morpholinoazetidin-1-yl)methyl)benzyl)amino)isoindoline-1,3-dione] | ≥ 10 | ≥ 10 | antiproliferative activity and/or apoptotic effects in almost all hematological cell lines tested | ≥ 10 | relatively high | ≥ 10 | ≥ 10 | ≥ 10 | ≥ 10 | ≥ 10 |
| Cl.O=C1CC[C@H](N2C(=O)c3cccc(NCc4ccc(CN5CC(N6CCOCC6)C5)cc4F)c3C2=O)C(=O)N1 [Compound 1 HC, salt] | – | – | – | – | relatively high | – | – | – | – | – |
